ChEMBL document CHEMBL4651402, “Screening of ~5500 FDA-approved drugs and clinical candidates for anti-SARS-CoV-2 activity” (2021)

Test system: SARS-CoV-2
Assay: microbe, parasite or virus in culture
Settings: Severe acute respiratory syndrome coronavirus 2, Vero C1008, 48 h

SMILES | IC50 | IC50 (read-out: pIC50 (converted))
Nc1ccc(S(=O)(=O)Nc2ncccn2)cc1 [SULFADIAZINE] | > 20 µM | > 20 µM
COc1cc(NS(=O)(=O)c2ccc(N)cc2)nc(OC)n1 [SULFADIMETHOXINE] | > 20 µM | > 20 µM
COc1ncnc(NS(=O)(=O)c2ccc(N)cc2)c1OC [SULFADOXINE] | > 20 µM | > 20 µM
N=C(N)NS(=O)(=O)c1ccc(N)cc1 [SULFAGUANIDINE] | > 20 µM | > 20 µM
Cc1cc(C)nc(NS(=O)(=O)c2ccc(N)cc2)n1 [SULFAMETHAZINE] | > 20 µM | > 20 µM
Cc1nnc(NS(=O)(=O)c2ccc(N)cc2)s1 [SULFAMETHIZOLE] | > 20 µM | > 20 µM
Cc1cc(NS(=O)(=O)c2ccc(N)cc2)no1 [SULFAMETHOXAZOLE] | > 20 µM | > 20 µM
COc1ccc(NS(=O)(=O)c2ccc(N)cc2)nn1 [SULFAMETHOXYPYRIDAZINE] | > 20 µM | > 20 µM
COc1cc(NS(=O)(=O)c2ccc(N)cc2)ncn1 [SULFAMONOMETHOXINE] | > 20 µM | > 20 µM
Nc1ccc(S(N)(=O)=O)cc1 [SULFANILAMIDE] | > 20 µM | > 20 µM
Nc1ccc(S(=O)(=O)Nc2ccnn2-c2ccccc2)cc1 [SULFAPHENAZOLE] | > 20 µM | > 20 µM
Nc1ccc(S(=O)(=O)Nc2ccccn2)cc1 [SULFAPYRIDINE] | > 20 µM | > 20 µM
Nc1ccc(S(=O)(=O)Nc2cnc3ccccc3n2)cc1 [SULFAQUINOXALINE] | > 20 µM | > 20 µM
O=C(O)c1cc(/N=N/c2ccc(S(=O)(=O)Nc3ccccn3)cc2)ccc1O [SULFASALAZINE] | > 20 µM | > 20 µM
Nc1ccc(S(=O)(=O)Nc2nccs2)cc1 [SULFATHIAZOLE] | > 20 µM | > 20 µM
COc1ccc(CCC(C)NCC(O)c2ccc(O)c([S+](C)[O-])c2)cc1 (stereo not given) [SULFINALOL] | > 20 µM | > 20 µM
O=C1C(CC[S+]([O-])c2ccccc2)C(=O)N(c2ccccc2)N1c1ccccc1 (stereo not given) [SULFINPYRAZONE] | > 20 µM | > 20 µM
CC(=O)N(c1onc(C)c1C)S(=O)(=O)c1ccc(N)cc1 [SULFISOXAZOLE ACETYL] | > 20 µM | > 20 µM
Cc1noc(NS(=O)(=O)c2ccc(N)cc2)c1C [SULFISOXAZOLE] | > 20 µM | > 20 µM
CC(C)(C)NCC(O)c1ccc(O)c(CS(C)(=O)=O)c1 (stereo not given) [SULFONTEROL] | > 20 µM | > 20 µM
COc1cc(O)c(C(=O)c2ccccc2)cc1S(=O)(=O)O [SULISOBENZONE] | > 20 µM | > 20 µM
COc1cc([S+](C)[O-])ccc1-c1nc2cccnc2[nH]1 (stereo not given) [SULMAZOLE] | > 20 µM | > 20 µM
O=C(O)COc1ccc(CCNS(=O)(=O)c2ccccc2)cc1 [SULOTROBAN] | > 20 µM | > 20 µM
CCN1CCCC1CNC(=O)c1cc(S(N)(=O)=O)ccc1OC (stereo not given) [SULPIRIDE] | > 20 µM | > 20 µM
CCN(CC)CCNC(=O)c1c(C)[nH]c(/C=C2\C(=O)Nc3ccc(F)cc32)c1C [SUNITINIB] | > 20 µM | > 20 µM

SMILES | IC50 | IC50 (read-out: pIC50 (converted))
CC(C(=O)O)c1ccc(C(=O)c2cccs2)cc1 (stereo not given) [SUPROFEN] | > 20 µM | > 20 µM
CCN(CC)CCNC(=O)N(CCS(=O)(=O)c1ccccc1)C(C)C [SURICAINIDE] | > 20 µM | > 20 µM
Cn1nc(-c2cccc(F)c2)n(C)c1=S [SURITOZOLE] | > 20 µM | > 20 µM
OC1CCCc2nc3ccccc3c(NCc3ccccc3)c21 (stereo not given) [SURONACRINE] | > 20 µM | > 20 µM
Cc1ccc(-n2nccn2)c(C(=O)N2CCN(c3nc4cc(Cl)ccc4o3)CC[C@H]2C)c1 [SUVOREXANT] | > 20 µM | > 20 µM
CN1C(C)(C)CC(OC(=O)CCC(=O)OC2CC(C)(C)N(C)C(C)(C)C2)CC1(C)C [SUXEMERID] | > 20 µM | > 20 µM
CCCCC1(COC(=O)CCC(=O)O)C(=O)N(c2ccccc2)N(c2ccccc2)C1=O [SUXIBUZONE] | > 20 µM | > 20 µM
COc1cc(C(=O)O)cc(OC)c1O [SYRINGIC ACID] | > 20 µM | > 20 µM
Nc1sc2c(c1C(=O)c1ccc(Cl)cc1)CCCC2 [T-62] | > 20 µM | > 20 µM
OC1CN(CCCOCCc2ccc3sccc3c2)C1 [T-817] | > 20 µM | > 20 µM
CC(=O)Nc1ccc(C(=O)Nc2ccccc2N)cc1 [TACEDINALINE] | > 20 µM | > 20 µM
c1ccc2c(c1)CCc1cccc3c1C2CN1CCCCC31 (stereo not given) [TACLAMINE] | > 20 µM | > 20 µM
Nc1c2c(nc3ccccc13)CCCC2 [TACRINE] | > 20 µM | > 20 µM
COc1cc(C)c2c(Oc3cccc(C(F)(F)F)c3)c(OC)cc(NC(C)CCCN)c2n1 (stereo not given) [TAFENOQUINE] | > 20 µM | > 20 µM
Cc1ccc(/C=C/C(=O)NCCCCN2CCN(C(c3ccccc3)c3ccccc3)CC2)cn1 [TAGORIZINE] | > 20 µM | > 20 µM
CCc1nc(-c2cccc(C)c2)c(-c2ccnc(NC(=O)c3ccccc3)c2)s1 [TAK-715] | > 20 µM | > 20 µM
CC(C)[C@H](N)C(=O)N1CCC[C@H]1B(O)O [TALABOSTAT] | > 20 µM | > 20 µM
CN(C(=O)c1ccc(F)cc1C(F)(F)F)C1CCN(c2nnc(-c3ccnn3C)c3ccccc23)CC1 [TALADEGIB] | > 20 µM | > 20 µM
CC1(C)S[C@@H]2[C@H](NC(=O)[C@H](N)c3ccccc3)C(=O)N2[C@H]1C(=O)OC1OC(=O)c2ccccc21 (stereo not given in full) [TALAMPICILLIN] | > 20 µM | > 20 µM
Cn1ncnc1[C@H]1c2n[nH]c(=O)c3cc(F)cc(c23)N[C@@H]1c1ccc(F)cc1 [TALAZOPARIB] | > 20 µM | > 20 µM
CC(C)(C)NCC(O)COc1ccc(NC(=O)NC2CCCCC2)cc1 (stereo not given) [TALINOLOL] | > 20 µM | > 20 µM
C=CCN1CCc2nc(N)sc2CC1 [TALIPEXOLE] | > 20 µM | > 20 µM
C[C@@H]1CN(Cc2ccc(F)cc2)[C@@H](C)CN1C(=O)c1cc2c(C(=O)C(=O)N(C)C)cn(C)c2cc1Cl [TALMAPIMOD] | > 20 µM | > 20 µM
CC[C@H](NC(=O)c1c(O)c(-c2ccccc2)nc2ccccc12)c1ccccc1 [TALNETANT] | > 20 µM | > 20 µM
CNCCCC1(c2ccccc2)OC(C)(C)c2ccccc21 (stereo not given) [TALOPRAM] | > 20 µM | > 20 µM

SMILES | IC50 | IC50 (read-out: pIC50 (converted))
CN[C@@H]1CC[C@@H](c2ccccc2)c2ccccc21 [TAMETRALINE] | > 20 µM | > 20 µM
CC1(C)CCC(C)(C)c2cc(NC(=O)c3ccc(C(=O)O)cc3)ccc21 [TAMIBAROTENE] | > 20 µM | > 20 µM
CC/C(=C(\c1ccccc1)c1ccc(OCCN(C)C)cc1)c1ccccc1 [TAMOXIFEN] | > 20 µM | > 20 µM
CCOc1ccccc1OCCN[C@H](C)Cc1ccc(OC)c(S(N)(=O)=O)c1 [TAMSULOSIN] | > 20 µM | > 20 µM
O=C1[C@@H]2[C@H]3CC[C@H](C3)[C@@H]2C(=O)N1CCCCN1CCN(c2ncccn2)CC1 [TANDOSPIRONE] | > 20 µM | > 20 µM
O[C@H]1CC[C@H](Nc2ncc3nc(Nc4c(F)cc(F)cc4F)n([C@H]4CCOC4)c3n2)CC1 [TANZISERTIB] | > 20 µM | > 20 µM
CC[C@@H](c1cccc(O)c1)[C@@H](C)CN(C)C [TAPENTADOL] | > 20 µM | > 20 µM
C[C@H](NC(=O)C(C)(C)Oc1ccc(C(F)(F)F)cn1)[C@@H](Cc1ccc(Cl)cc1)c1cccc(C#N)c1 [TARANABANT] | > 20 µM | > 20 µM
C[C@@H](C(=O)O)c1ccc(-c2ccccc2)c(F)c1 [TARENFLURBIL] | > 20 µM | > 20 µM
O=C(O)C(O)C(O)C(=O)O (stereo not given) [TARTARIC ACID] | > 20 µM | > 20 µM
C#C[C@@]1(O)[C@@H](CO)O[C@@H](n2ccc(N)nc2=O)[C@@H]1O [TAS-106] | > 20 µM | > 20 µM
CCC(=O)NC[C@@H]1C[C@H]1c1cccc2c1CCO2 [TASIMELTEON] | > 20 µM | > 20 µM
c1cnc(SCc2cccnc2)nc1 [TASULDINE] | > 20 µM | > 20 µM
NCCS(=O)(=O)O [TAURINE] | > 20 µM | > 20 µM
C[C@H](CCC(=O)NCCS(=O)(=O)O)[C@H]1CC[C@H]2[C@@H]3[C@@H](O)C[C@@H]4C[C@H](O)CC[C@]4(C)[C@H]3CC[C@]12C [TAURURSODIOL] | > 20 µM | > 20 µM
OB1OCc2cc(F)ccc21 [TAVABOROLE] | > 20 µM | > 20 µM
CCOC(=O)c1ccc(C#Cc2ccc3c(c2)C(C)(C)CCS3)nc1 [TAZAROTENE] | > 20 µM | > 20 µM
CCN(c1cc(-c2ccc(CN3CCOCC3)cc2)cc(C(=O)NCc2c(C)cc(C)[nH]c2=O)c1C)C1CCOCC1 [TAZEMETOSTAT] | > 20 µM | > 20 µM
C[C@]1(Cn2ccnn2)[C@H](C(=O)O)N2C(=O)C[C@H]2S1(=O)=O [TAZOBACTAM] | > 20 µM | > 20 µM
[2H]C1([2H])[C@H]2C[C@@H](Oc3ccc(C(F)(F)F)cn3)[C@H](C2)N1C(=O)c1cccc(F)c1-c1ncccn1 [TEBIDEUTOREXANT] | > 20 µM | > 20 µM
Cn1nnc(-c2ccc(-c3ccc(N4C[C@H](COP(=O)(O)O)OC4=O)cc3F)cn2)n1 [TEDIZOLID PHOSPHATE] | > 20 µM | > 20 µM
O=c1[nH]c(=O)n(C2CCCO2)cc1F (stereo not given) [TEGAFUR] | > 20 µM | > 20 µM
CCCCCNC(=N)N/N=C/c1c[nH]c2ccc(OC)cc12 [TEGASEROD] | > 20 µM | > 20 µM
CCc1nc2ccc(Cl)cn2c1C(=O)NCc1ccc(N2CCC(c3ccc(OC(F)(F)F)cc3)CC2)cc1 [TELACEBEC] | > 20 µM | > 20 µM
CNC(=O)c1cc(COc2nnc(Nc3ccc(Cl)cc3)c3ccoc23)ccn1 [TELATINIB] | > 20 µM | > 20 µM
